Reference: patent EP0103636B1, “USE OF OPIUM ANTAGONISTS FOR THE MANUFACTURE OF MEDICAMENTS FOR CONTROLLING GASTROINTESTINAL DYSMOTILITY” (ROCKEFELLER UNIVERSITY, priority 1982, dated 1983)

Columns and labels:
opioid receptors = details: Wikler, A., Int. J. of the Addictions 12(7) 869, 1977; cited from earlier work
chronic constipation [1] = experiment: Example I: stool weight of a patient with chronic constipation given naloxone (single blind, placebo first); assay type: in vivo, human
Procedure: A person with a history of chronic constipation for a period of over twenty years, requiring daily use of large doses of laxatives plus frequent enemas, was admitted to the research hospital on day one at approximately 4:00 p.m. They were given a standard laxative regimen documented to be inadequate to effect a spontaneous bowel movement, and placed on a high residue diet.
During the first 24 hours they were treated with a placebo (Infusion A) according to the following schedule:
The total dosage per day was 21.6 mg.
During the five days that the patient was under hospital care the stools were collected and weighed. The results were as follows:
The experiment was conducted as a single blind. The patient was not aware of whether they were receiving a placebo or the active agent.

chronic constipation [2] = experiment: Example II: stool weight of a second patient with chronic constipation given naloxone; assay type: in vivo, human
From the text: A second patient with a history of over twenty years of chronic constipation, intractable to laxatives, who for the past several months was only relieved by enema treatment was admitted to the hospital and placed on a high residue diet.

chronic constipation [3] = experiment: Table 1: five inpatient and outpatient studies on Patient Number 1 (chronic constipation): fecal weight, fecal fat, symptoms; assay type: in vivo, human
From the text: The tables set forth the significant details and results of a number of studies conducted with different patients suffering from various forms of intestinal dysmotility. […] The first study was of two days duration. The lengths of subsequent studies are as indicated.
The reports Tables 1 to 5 are for patients with chronic constipation. Those in Tables 6, 7 and 8 are for patients with irritable bowel syndrome.

[4] = Adverse effects by clinical examination, blood and urine analysis in Examples I and II; assay type: in vivo, human
From the text: Samples of the patient's blood and urine were collected each day and subjected to analysis.

[5] = Day 2, naloxone intravenous (29.2 mg per Table 1)
[6] = Day 3, naloxone oral 21.6 mg per day
[7] = Day 4, naloxone oral 21.6 mg per day
[8] = Day 5, naloxone oral 21.6 mg per day
[9] = Day 1, 29.2 mg naloxone, intravenous
[10] = Patient Number 1, Study #1 (inpatient), i.v., Study Day 2, total 24 hour dose 29.2 mg
[11] = Patient Number 1, Study #2 (inpatient), p.o., Study Day 1, total 24 hour dose 21.6 mg
[12] = Patient Number 1, Study #2 (inpatient), p.o., Study Day 2, total 24 hour dose 21.6 mg
[13] = Patient Number 1, Study #2 (inpatient), p.o., Study Day 3, total 24 hour dose 21.6 mg

In the case of O=C1CC[C@@]2(O)[C@H]3Cc4ccc(O)c5c4[C@@]2(CCN3CC2CC2)[C@H]1O5 [Naltrexone, N-cyclopropylmethyl-14-hydroxydihydronormorphinone], the agonistic activity (opioid receptors) is given as “slight agonistic activity”.

For C=CCN1CC[C@]23c4c5ccc(O)c4O[C@H]2C(=O)CC[C@@]3(O)[C@H]1C5 [naloxone, N-allyl-14-hydroxydihydronormorphinone], the “STOOL WEIGHT GRAMS Wet Weight” value (chronic constipation [1]; [5]) was 649 Grams, the “Stool Weight Grams Dry Weight” value (chronic constipation [1]; [5]) was 52 Grams and the “STOOL WEIGHT GRAMS Wet Weight” value (chronic constipation [1]; [6]) was 985 Grams. For the same compound, the “Stool Weight Grams Dry Weight” value (chronic constipation [1]; [6]) was 77 Grams, the “STOOL WEIGHT GRAMS Wet Weight” value (chronic constipation [1]; [7]) was 997 Grams and the “Stool Weight Grams Dry Weight” value (chronic constipation [1]; [7]) was 77 Grams. The “STOOL WEIGHT GRAMS Wet Weight” value (chronic constipation [1]; [8]) was 806 Grams, the “Stool Weight Grams Dry Weight” value (chronic constipation [1]; [8]) was 65 Grams and the “STOOL WEIGHT GRAMS Wet Weight” value (chronic constipation [2]; [9]) was 84 GRAMS. For the same compound, the “Stool Weight Grams Dry Weight” value (chronic constipation [2]; [9]) was 18.5 GRAMS, the “STOOL WEIGHT GRAMS Wet Weight” value (chronic constipation [2]; Day 3, 14.4 mg naloxone, oral) was 35 GRAMS and the “Stool Weight Grams Dry Weight” value (chronic constipation [2]; Day 3, 14.4 mg naloxone, oral) was 8.2 GRAMS. The “STOOL WEIGHT GRAMS Wet Weight” value (chronic constipation [2]; Day 4, 21.6 mg naloxone, oral) was 125 GRAMS, the “Stool Weight Grams Dry Weight” value (chronic constipation [2]; Day 4, 21.6 mg naloxone, oral) was 66.4 GRAMS and the “STOOL WEIGHT GRAMS Wet Weight” value (chronic constipation [2]; Day 5, 21.6 mg naloxone, oral) was 230 GRAMS. The “Stool Weight Grams Dry Weight” value (chronic constipation [2]; Day 5, 21.6 mg naloxone, oral) was 82.4 GRAMS, the “STOOL WEIGHT GRAMS Wet Weight” value (chronic constipation [2]; Day 6, 7.2 mg naloxone, oral) was 34 GRAMS and the “Fecal Dry Wt. (gm)” value (chronic constipation [3]; [10]) was 52 gm. The “Fecal Wet Wt. (gm)” value (chronic constipation [3]; [10]) was 649 gm, the “Symptoms, Signs, Comments” value (chronic constipation [3]; [10]) was “Marked improvement” and the “Fecal Dry Wt. (gm)” value (chronic constipation [3]; [11]) was 77 gm. The “Fecal Wet Wt. (gm)” value (chronic constipation [3]; [11]) was 985 gm, the “Symptoms, Signs, Comments” value (chronic constipation [3]; [11]) was “Marked improvement” and the “Fecal Dry Wt. (gm)” value (chronic constipation [3]; [12]) was 77 gm. The “Fecal Wet Wt. (gm)” value (chronic constipation [3]; [12]) was 997 gm, the “Symptoms, Signs, Comments” value (chronic constipation [3]; [12]) was “Marked improvement” and the “Fecal Dry Wt. (gm)” value (chronic constipation [3]; [13]) was 65 gm. The “Fecal Wet Wt. (gm)” value (chronic constipation [3]; [13]) was 806 gm, the “Symptoms, Signs, Comments” value (chronic constipation [3]; [13]) was “Marked improvement” and the “Symptoms, Signs, Comments” value (chronic constipation [3]; Patient Number 1, Study #3 (outpatient), p.o., Study Day 1, total 24 hour dose 21.6 mg) was “Average day”. For the same compound, the “Symptoms, Signs, Comments” value (chronic constipation [3]; Patient Number 1, Study #3 (outpatient), p.o., Study Day 2, total 24 hour dose 21.6 mg) was “Better than average day”, the “Symptoms, Signs, Comments” value (chronic constipation [3]; Patient Number 1, Study #3 (outpatient), p.o., Study Day 3, total 24 hour dose 21.6 mg) was “Much better than average day” and the “Fecal Wet Wt. (gm)” value (chronic constipation [3]; Patient Number 1, Study #4 (inpatient), i.v., Study Day 2, total 24 hour dose 29.2 mg) was 775 gm. The “Fecal Wet Wt. (gm)” value (chronic constipation [3]; Patient Number 1, Study #4 (inpatient), i.v., Study Day 3, total 24 hour dose 29.2 mg) was 859 gm, the “Symptoms, Signs, Comments” value (chronic constipation [3]; Patient Number 1, Study #5 (outpatient), route not given, Study Day 1, total 24 hour dose 21.6 mg) was “Much better than average” and the “Symptoms, Signs, Comments” value (chronic constipation [3]; Patient Number 1, Study #5 (outpatient), route not given, Study Day 2, total 24 hour dose 21.6 mg) was “Much better than average”. The “Symptoms, Signs, Comments” value (chronic constipation [3]; Patient Number 1, Study #5 (outpatient), route not given, Study Day 3, total 24 hour dose 21.6 mg) was “Much better than average”, the “adverse effects (analysis of blood and urine collected each day)” value ([4]; Example I patient, naloxone intravenous then oral 21.6 mg per day) was “No adverse effects” and the “adverse effects (clinical examinations, blood or urine analysis)” value ([4]; Example II patient, naloxone 29.2 mg intravenous, then 7.2 to 21.6 mg oral) was “No adverse effects”.
